Earlier results on one substance are cited in publication PMC11436104 (Toxins, 2024).

The series has as its system rat primary astrocytes. The settings on record: cited from earlier work.

For MC-LF, the “cytotoxicity in rat primary astrocytes” value is “selective cytotoxicity”.
